The results in this text go back to patent publication EP2818472A1, “Imidazo[4,5-c]pyridine and pyrrolo[3,2-c]pyridine compounds as G-protein-coupled receptor kinase 5 (GRK5) modulators” (Max-Planck-Gesellschaft zur Förderung der Wissenschaften …, priority 2013, dated 2014).

SMILES strings stand for the structures.

One test relates to beta-TC6 cells. The experiment in a line: Insulin HTRF assay (relative activity Ar) in beta-TC6 cells. Particulars: Mus musculus, Beta-TC6, 4 h, insulin HTRF, supernatant of beta-TC6 cells, incubation with test compound at 37°C for 2, 3, 4h; read-out: Ar (relative activity). Format: cell-based, mouse. Summed up: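 beta-TC6 cells (15k/well, seeded 24 or 48 h) washed, then exposed to compound in induction buffer (0.5% DMSO final) for 2, 3 or 4 h at 37°C.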
`Cn1c(-c2cccnc2)cc2c(Nc3ccc(F)cc3)nccc21` [Compound 242, N-(4-fluorophenyl)-1-methyl-2-(3-pyridyl)pyrrolo[3,2-c]pyridin-4-amine]: the Emax was 0 to 30%.

With `c1cc2[nH]c(-c3ccsc3)cc2c(Nc2ccc(N3CCOCC3)cc2)n1` [Compound 256, N-(4-morpholinophenyl)-2-(3-thienyl)-1H-pyrrolo[3,2-c]pyridin-4-amine], the Emax was in the range of 50 to 100%. On the same count and under the same terms, the figure for `COc1cccc(-c2nc3c(Nc4ccc(Cl)cc4)nccc3[nH]2)c1F` [Compound 471, N-(4-chlorophenyl)-2-(2-fluoro-3-methoxy-phenyl)-1H-imidazo[4,5-c]pyridin-4-amine] is 0 to 30%; for `CNc1nc2cnc(Nc3ccc(N4CCN(C)CC4)cc3)cc2n1-c1cc(OC)c(OC)c(OC)c1` [Compound 489, N2-methyl-N6-[4-(4-methylpiperazin-1-yl)phenyl]-1-(3,4,5-trimethoxyphenyl)imidazo[4,5-c]pyridine-2,6-diamine] it is 50 to 100%; for `c1ccc(-c2cc3cnc(Nc4ccc(N5CCOCC5)cc4)cc3[nH]2)cc1` [Compound 176, N-(4-morpholinophenyl)-2-phenyl-1H-pyrrolo[3,2-c]pyridin-6-amine] it is 50 to 100%. Still for that read-out and setting: then `CNc1nc2cnc(Nc3cc(OC)c(OC)c(OC)c3)cc2n1-c1ccccc1` [Compound 502, N2-methyl-1-phenyl-N6-(3,4,5-trimethoxyphenyl)imidazo[4,5-c]pyridine-2,6-diamine], with 50 to 100%. Take `CC(=O)N(C)c1cccc(-c2cc3cnc(Nc4ccccn4)cc3n2C)c1` [Compound 167, N-methyl-N-[3-[1-methyl-6-(2-pyridylamino)pyrrolo[3,2-c]pyridin-2-yl]phenyl]acetamide]: the Emax fell in the range of 30 to 50%. In the case of `CN(C)C(=O)c1ccc(-c2cc3cnc(Nc4ccccc4Cl)cc3[nH]2)cc1` [Compound 37, 4-[6-(2-chloroanilino)-1H-pyrrolo[3,2-c]pyridin-2-yl]-N,N-dimethyl-benzamide], the Emax lay within 30 to 50%. `COc1cccc(Nc2nccc3[nH]c(-c4ccco4)nc23)c1` [Compound 464, 2-(2-furyl)-N-(3-methoxyphenyl)-1H-imidazo[4,5-c]pyridin-4-amine]: the Emax lay in the range of 30 to 50%.

With `Cn1c(NCc2ccccc2F)nc2cnc(-c3ccc(F)cc3)cc21` [Compound 657, 6-(4-fluorophenyl)-N-[(2-fluorophenyl)methyl]-1-methyl-imidazo[4,5-c]pyridin-2-amine], the Emax was in the range of 30 to 50%.

On to `CNc1nc2cnc(Nc3ccc4c(c3)OCO4)cc2n1Cc1ccco1` [Compound 524, N6-(1,3-benzodioxol-5-yl)-1-(2-furylmethyl)-N2-methyl-imidazo[4,5-c]pyridine-2,6-diamine], for which the Emax was 50 to 100%. The same measure, in the same setting: then `COCCNc1nc2cnc(-c3cccc(OC(F)(F)F)c3)cc2n1C` [Compound 855, N-(2-methoxyethyl)-1-methyl-6-[3-(trifluoromethoxy)phenyl]imidazo[4,5-c]pyridin-2-amine], with 30 to 50%. The same measure, in the same setting: then `CNc1nc2cnc(-c3ccoc3)cc2n1Cc1ccccc1` [Compound 798, 1-benzyl-6-(3-furyl)-N-methyl-imidazo[4,5-c]pyridin-2-amine], with 30 to 50%; and `CN(C)c1cccc(Nc2nccc3[nH]c(-c4ccccc4)nc23)c1` [Compound 331, N1,N1-dimethyl-N3-(2-phenyl-1H-imidazo[4,5-c]pyridin-4-yl)benzene-1,3-diamine], with 50 to 100%. For `COC(=O)c1ccc(Nc2cc3c(cn2)cc(-c2cnn(C)c2)n3C)cc1` [Compound 141, methyl 4-[[1-methyl-2-(1-methylpyrazol-4-yl)pyrrolo[3,2-c]pyridin-6-yl]amino]benzoate], the Emax was 50 to 100%. Turning to `COc1ccc(Nc2cc3[nH]c(-c4cccc(N)c4)cc3cn2)cn1` [Compound 1, 2-(3-aminophenyl)-N-(6-methoxy-3-pyridyl)-1H-pyrrolo[3,2-c]pyridin-6-amine], the Emax lay within 50 to 100%. On to `CNc1nc2cnc(-c3ccc(OC)cc3)cc2n1Cc1ccc(OC)c(OC)c1` [Compound 672, 1-[(3,4-dimethoxyphenyl)methyl]-6-(4-methoxyphenyl)-N-methyl-imidazo[4,5-c]pyridin-2-amine], for which the Emax was in the range of 30 to 50%. Consider `CNc1nc2cnc(Nc3cccc(NC(C)=O)c3)cc2n1-c1ccccc1` [Compound 516, N-[3-[[2-(methylamino)-1-phenyl-imidazo[4,5-c]pyridin-6-yl]amino]phenyl]acetamide], for which the Emax was 50 to 100%. Still for that read-out and setting: the figure for `COc1cccc(-c2nc3c(Nc4ccccc4)nccc3[nH]2)c1` [Compound 370, 2-(3-methoxyphenyl)-N-phenyl-1H-imidazo[4,5-c]pyridin-4-amine] is 30 to 50%; for `CN(C)C(=O)c1ccc(-c2cc3cnc(Nc4cccc(O)c4)cc3n2C)cc1` [Compound 53, 4-[6-(3-hydroxyanilino)-1-methyl-pyrrolo[3,2-c]pyridin-2-yl]-N,N-dimethyl-benzamide] it is 50 to 100%. Consider `CNc1nc2cnc(Nc3cccc(NC(C)=O)c3)cc2n1CC1CC1` [Compound 574, N-[3-[[1-(cyclopropylmethyl)-2-(methylamino)imidazo[4,5-c]pyridin-6-yl]amino]phenyl]acetamide], for which the Emax fell in the range of 50 to 100%. Still for that read-out and setting: then `CNc1nc2cnc(Nc3cccc(C(F)(F)F)c3)cc2n1Cc1cccnc1` [Compound 765, N2-methyl-1-(3-pyridylmethyl)-N6-[3-(trifluoromethyl)phenyl]imidazo[4,5-c]pyridine-2,6-diamine], with 0 to 30%.

Regarding `CNc1nc2cnc(Nc3ccc(N4CCOCC4)cc3)cc2n1CC1CC1` [Compound 571, 1-(cyclopropylmethyl)-N2-methyl-N6-(4-morpholinophenyl)imidazo[4,5-c]pyridine-2,6-diamine], the Emax lay in the range of 50 to 100%. Same read-out and setting: the figure for `Clc1cccc(Nc2nccc3[nH]c(-c4ccncc4)nc23)c1` [Compound 424, N-(3-chlorophenyl)-2-(4-pyridyl)-1H-imidazo[4,5-c]pyridin-4-amine] is 30 to 50%. For `Cc1cccc(CNc2nc3cnc(Nc4ccc(F)cc4)cc3n2C)c1` [Compound 582, N6-(4-fluorophenyl)-1-methyl-N2-(m-tolylmethyl)imidazo[4,5-c]pyridine-2,6-diamine], the Emax fell in the range of 30 to 50%.

For the molecule `CC(=O)Nc1cccc(Nc2cc3c(cn2)cc(-c2cnn(C)c2)n3Cc2ccccc2)c1` [Compound 157, N-[3-[[1-benzyl-2-(1-methylpyrazol-4-yl)pyrrolo[3,2-c]pyridin-6-yl]amino]phenyl]acetamide], the Emax is 50 to 100%. For `c1ccc(Nc2nccc3[nH]c(-c4ccsc4)cc23)nc1` [Compound 260, N-(2-pyridyl)-2-(3-thienyl)-1H-pyrrolo[3,2-c]pyridin-4-amine], the Emax was 50 to 100%. The same measure, in the same setting: the figure for `CNc1nc2cnc(Nc3ccc(C(C)C)cc3)cc2n1CCOC` [Compound 498, N6-(4-isopropylphenyl)-1-(2-methoxyethyl)-N2-methyl-imidazo[4,5-c]pyridine-2,6-diamine] is 30 to 50%; for `COc1ccccc1-c1cc2c(Nc3ccccn3)nccc2n1C` [Compound 304, 2-(2-methoxyphenyl)-1-methyl-N-(2-pyridyl)pyrrolo[3,2-c]pyridin-4-amine] it is 30 to 50%. The same measure, in the same setting: then `CNc1nc2cnc(Nc3ccc(C#N)cc3)cc2n1-c1cccc(F)c1` [Compound 686, 4-[[1-(3-fluorophenyl)-2-(methylamino)imidazo[4,5-c]pyridin-6-yl]amino]benzonitrile], with 30 to 50%.

Consider `COc1ccc(Nc2nccc3[nH]c(-c4ccc(C)cc4)nc23)cn1` [Compound 379, N-(6-methoxy-3-pyridyl)-2-(p-tolyl)-1H-imidazo[4,5-c]pyridin-4-amine], for which the Emax lay in the range of 50 to 100%.

Regarding `Cn1c(NCC2CC2)nc2cnc(Nc3cccc(Oc4ccccc4)c3)cc21` [Compound 750, N2-(cyclopropylmethyl)-1-methyl-N6-(3-phenoxyphenyl)imidazo[4,5-c]pyridine-2,6-diamine], the Emax was 0 to 30%.

Take `CN1CCN(c2ccc(Nc3cc4c(cn3)cc(-c3cnn(C)c3)n4C)cc2)CC1` [Compound 133, 1-methyl-N-[4-(4-methylpiperazin-1-yl)phenyl]-2-(1-methylpyrazol-4-yl)pyrrolo[3,2-c]pyridin-6-amine]: the Emax lay within 50 to 100%. Same read-out and setting: the figure for `COc1cc(Nc2cc3[nH]c(-c4cn[nH]c4)cc3cn2)cc(C(F)(F)F)c1` [Compound 116, N-[3-methoxy-5-(trifluoromethyl)phenyl]-2-(1H-pyrazol-4-yl)-1H-pyrrolo[3,2-c]pyridin-6-amine] is 0 to 30%; for `CC(=O)N(C)c1cccc(-c2cc3cnc(Nc4cccc(N(C)C)c4)cc3n2C)c1` [Compound 165, N-[3-[6-[3-(dimethylamino)anilino]-1-methyl-pyrrolo[3,2-c]pyridin-2-yl]phenyl]-N-methyl-acetamide] it is over 100%; for `COc1ccc(OC)c(CCNc2nc3cnc(-c4cccc(C(N)=O)c4)cc3n2C)c1` [Compound 822, 3-[2-[2-(2,5-dimethoxyphenyl)ethylamino]-1-methyl-imidazo[4,5-c]pyridin-6-yl]benzamide] it is 0 to 30%.

`Cn1c(-c2ccccc2)cc2c(Nc3cccc(O)c3)nccc21` [Compound 328, 3-[(1-methyl-2-phenyl-pyrrolo[3,2-c]pyridin-4-yl)amino]phenol]: the Emax was in the range of 30 to 50%. Take `COc1ccc(-c2cc3c(cn2)nc(NCc2cccc(C)c2)n3C)cc1OC` [Compound 579, 6-(3,4-dimethoxyphenyl)-1-methyl-N-(m-tolylmethyl)imidazo[4,5-c]pyridin-2-amine]: the Emax lay within 30 to 50%.

The test is the same for the next values; noted with them: Mus musculus, Beta-TC6, 4 h, read-out: Ar (relative activity).
`CCN(CC)CCNC(=O)c1ccc(Nc2nccc3[nH]c(-c4cccc(OC)c4F)nc23)cc1` [Compound 473, N-(2-diethylaminoethyl)-4-[[2-(2-fluoro-3-methoxy-phenyl)-1H-imidazo[4,5-c]pyridin-4-yl]amino]benzamide]: the Emax is over 100%.
